Common to all, as to format: cell-based
Experiment [1] relates to PMN's (polymorphonuclear leukocytes). Nature of the experiment: Neutrophil oxidative burst. Conditions: Leukocyte, 40 min, read-out: Neutrophil oxidative burst Rel EC50 range, PMN from buffy coats, 40 min at RT, hydroethidine fluorescence; normalized to 5×10^−7 M PEP0005. How it is done:
PMN's (polymorphonuclear leukocytes) were isolated and purified from fresh buffy coats by sequential sedimentation, density centrifugation and lysis of contaminating erythrocytes. Buffy coats were incubated with 2% methocel for 30-45 min to differentially sediment red blood cells. The leukocyte-rich supernatant was transferred to lymphoprep tubes to remove mononuclear cells by density centrifugation (400×g, 30 min). The pellet was resuspended and any remaining erythrocytes lysed using 0.2% NaCl for 30 sec before restoring isotonicity by the addition of 1.2% NaCl. This step was repeated until the cell pellet appears relatively free of red blood cells. Cells were resuspended in DPBS (Dulbecco's Phosphate Buffered Saline) (w.o. Ca^2+, Mg^2+) and the concentration adjusted to 1.4×10^6 cells/ml in HBSS (Hanks Balanced Salt solution) (w Ca^2+, Mg^2±) containing 0.1% BSA (Bovine Serum Albumin) and 5 mM glucose just prior to assay initiation. Titrated reference and test compounds were pre-mixed with HE (Hydroethidine) (10 μM final assay concentration) before addition to 96-well plates containing 2.5×10^5 cells. Following 40 min incubation at RT, changes in the respiratory burst was estimated by measuring fluorescence at 579 nm (excitation: 485 nm) using an Envision plate reader.
Test compound titration curves were fitted to a four-parameter sigmoidal curve after normalizing the effect of the test compound to the effect of the positive control (5×10^−7 M PEP0005). Rel EC50 denotes the concentration of test compound producing an effect that is midway between the fitted top and bottom. Abs EC50 is the concentration of test compound that provokes a response corresponding to 50% of the maximal effect associated with the positive control (5×10^−7 M PEP0005).

For experiment [2], the system named is Primary human epidermal keratinocytes, HeKa. Nature of the experiment: HeKa cytokine release (IL-8). Conditions: Homo sapiens, HEKa, 6 h, read-out: HeKa cytokine release (IL-8) Rel EC50 range. How it is done: Primary human epidermal keratinocytes, HeKa, were seeded (10.000 cells/well) in 96-well plates the day before the assay. Test compounds were diluted in DMSO (dimethyl sulfoxide) and further diluted in assay medium and pipetted into wells of 96 well-plates containing HeKa cells. The plates were incubated for 6 h at 37° C. in humidified air with 5% CO2. Plates were centrifuged briefly to spin down cells at 4° C., the supernatant was removed and analysed by Meso Scale Discovery (MSD) 4-spot cytokine assay (Pro-inflammatory II Ultra Sensitive kit, MSD, MD, USA). The MSD assay employs a sandwich immunoassay format where capture antibodies are coated in a patterned array on the bottom of the wells of a 4-Spot-Multi-MSD plate. Standard samples were incubated in the MULTI-SPOT plates as well, and the cytokine (IL-8) binds to its corresponding capture antibody spot. The cytokine level was quantitated on a SECTOR™ Imager using a cytokine-specific Detection Antibody labelled with MSD SULFO-TAG™ reagent.
Test compound titration curves were fitted to a four-parameter sigmoidal curve after normalizing the effect of the test compound to the effect of the positive control (1.5×10^−7 M PEP0005). Rel EC50 denotes the concentration of test compound producing an effect that is midway between the fitted top and bottom.

Experiment [3] has as its system HeLa cells. Nature of the experiment: Necrosis assay. The conditions noted are these: Homo sapiens, HeLa, 0.5 h, read-out: HeLa necrosis EC50 range. How it is done: HeLa cells (ATCC CCL-002) were grown in minimal essential medium (Invitrogen catalog no. 42360) containing 10% fetal bovine serum, 100 IU/ml penicillin and 100 μg/ml streptomycin. 4,000-6,000 cells were seeded into 96-well black ViewPlates-plates, clear bottom, (Perkin Elmer) in 100 μl medium and incubated overnight. Compounds were dissolved and pre-diluted in DMSO in 96-well polypropylene plates (Greiner) in a concentration range of 15 μM to 600 μM. At the time of the experiment cell plates were placed on heating blocks at 37° C., medium was removed and 40 μl fresh, pre-warmed medium was added per well. Cells were incubated for 15 min before addition of compounds. In parallel, 3 μl of compounds were diluted with 197 μl growth medium on a Tecan freedom-EVO pipetting station using 250 μl/s pipetting speed, in order to ensure effective mixing of the highly concentrated compound solutions with the aqueous phase. These pre-dilution plates were then equilibrated on heating blocks at 37° C. for 10 min. 80 μl pre-diluted compound were transferred manually to the corresponding wells containing HeLa cells yielding compound concentrations of 10 μM to 400 μM. Control conditions were 1% DMSO in growth medium (100% viability) and 400 μM ingenol mebutate in growth medium (0% viability). Plates were incubated on the heating blocks at 37° C. for 30 min. At the end of the incubation 10 μl PrestoBlue reagent (Invitrogen) were added to each well, plates were sealed with black seal, followed by incubation at 37° C. for 10 min with gentle shaking (150 rpm). Subsequently, plates were placed at room temperature for 20-30 min. Plates were read immediately after on an Envision Fluorescence reader (Perkin Elmer) with excitation at 535 nm and emission at 630 nm. Test compound titration curves were fitted to a four-parameter sigmoidal curve after normalizing the effect of the test compound to the effect of the positive control (4 10^−4 M PEP0005/ingenol mebutate). AbsEC50 denotes the concentration of test compound producing 50% effect.

As usually defined, the EC50 is the midpoint of the concentration-response curve. Take `CC1=C[C@]23C(=O)[C@@H](C=C(CO)[C@@H](O)[C@]2(O)[C@H]1OC(=O)N1CCCC1C(F)(F)F)[C@H]1[C@@H](C[C@H]3C)C1(C)C` (single isomer, unassigned; isomer a) [Compound 740, Ingenol 3-(2-trifluoromethyl-pyrrolidine-1-carboxylate) (ISOMER A)]: the EC50 is below 20 nM in experiment [1] and 20 to 100 nM in experiment [2].
With `CC1=C[C@]23C(=O)[C@@H](C=C(CO)[C@@H](O)[C@]2(O)[C@H]1OC(=O)c1cnnn1-c1ccccc1)[C@H]1[C@@H](C[C@H]3C)C1(C)C` [Compound 504, Ingenol 3-(3-phenyltriazole-4-carboxylate)], the EC50 in experiment [1] and in experiment [2] was 20 to 100 nM throughout.
Regarding `CC1=C[C@]23C(=O)[C@@H](C=C(CO)[C@@H](O)[C@]2(O)[C@H]1OC(=O)c1cn(C)c2ccccc12)[C@H]1[C@@H](C[C@H]3C)C1(C)C` [Compound 509, Ingenol 3-(1-methylindole-3-carboxylate)], the EC50 in experiment [1] and in experiment [2] was below 20 nM each time.
In the case of `CC1=C[C@]23C(=O)[C@@H](C=C(CO)[C@@H](O)[C@]2(O)[C@H]1OC(=O)c1c(C(C)(C)C)noc1C)[C@H]1[C@@H](C[C@H]3C)C1(C)C` [Compound 549, Ingenol 3-(5-methyl-3-tert-butyl-isoxazole-4-carboxylate)], the EC50 in experiment [1] and in experiment [2] was below 20 nM throughout.
In the case of `CC1=C[C@]23C(=O)[C@@H](C=C(CO)[C@@H](O)[C@]2(O)[C@H]1OC(=O)c1c(C)nn(C(C)(C)C)c1C)[C@H]1[C@@H](C[C@H]3C)C1(C)C` [Compound 551, Ingenol 3-(1-tert-butyl-3,5-dimethyl-pyrazole-4-carboxylate)], the EC50 in experiment [1] and in experiment [2] was below 20 nM in each case.
For the molecule `CC1=C[C@]23C(=O)[C@@H](C=C(CO)[C@@H](O)[C@]2(O)[C@H]1OC(=O)c1sc(=O)[nH]c1C)[C@H]1[C@@H](C[C@H]3C)C1(C)C` [Compound 562, Ingenol 3-(4-methyl-2-oxo-3H-thiazole-5-carboxylate)], the figures for the concentration giving a half-maximal response (EC50) in experiment [1] and in experiment [3] were 20 to 100 nM and above 350000 nM, respectively.
In the same order, the values of `CC1=C[C@]23C(=O)[C@@H](C=C(CO)[C@@H](O)[C@]2(O)[C@H]1OC(=O)c1noc(C)c1C)[C@H]1[C@@H](C[C@H]3C)C1(C)C` [Compound 569, Ingenol 3-(4,5-dimethylisoxazole-3-carboxylate)] are 20 to 100 nM and 150000 to 350000 nM.
On to `CC1=C[C@]23C(=O)[C@@H](C=C(CO)[C@@H](O)[C@]2(O)[C@H]1OC(=O)c1c(C)cc(=O)oc1C)[C@H]1[C@@H](C[C@H]3C)C1(C)C` [Compound 573, Ingenol 3-(2,4-dimethyl-6-oxo-pyran-3-carboxylate)], for which the EC50 in experiment [1] and in experiment [2] was 20 to 100 nM each time.
Take `CC1=C[C@]23C(=O)[C@@H](C=C(CO)[C@@H](O)[C@]2(O)[C@H]1OC(=O)N(C)C)[C@H]1[C@@H](C[C@H]3C)C1(C)C` [Compound 702, Ingenol 3-(N,N-dimethyl-carbamate)]: the EC50 in experiment [1] was 20 to 100 nM; in experiment [2] it was above 100 nM.
Regarding `CC1=C[C@]23C(=O)[C@@H](C=C(CO)[C@@H](O)[C@]2(O)[C@H]1OC(=O)N(C)C(C)CC#N)[C@H]1[C@@H](C[C@H]3C)C1(C)C` (some centres unmarked) [Compound 715, Ingenol 3-(N-(2-cyano-1-methyl-ethyl)-N-methyl-carbamate)], the results for the EC50 in experiment [1] and in experiment [3] were above 100 nM and above 350000 nM, respectively.
In the case of `CC1=C[C@]23C(=O)[C@@H](C=C(CO)[C@@H](O)[C@]2(O)[C@H]1OC(=O)N(C)c1cc(C)nn1C)[C@H]1[C@@H](C[C@H]3C)C1(C)C` [Compound 719, Ingenol 3-(N-(2,5-dimethylpyrazol-3-yl)-N-methyl-carbamate)], the results for the EC50 in experiment [1] and in experiment [3] were above 100 nM and above 350000 nM, respectively.
Turning to `CC1=C[C@]23C(=O)[C@@H](C=C(CO)[C@@H](O)[C@]2(O)[C@H]1OC(=O)N1CCC(=O)c2ccccc21)[C@H]1[C@@H](C[C@H]3C)C1(C)C` [Compound 725, Ingenol 3-(4-oxo-2,3-dihydroquinoline-1-carboxylate)], the half-maximal effective concentration (EC50) in experiment [1] was below 20 nM; in experiment [3], 150000 to 350000 nM.
For `COc1ccccc1N(C)C(=O)O[C@H]1C(C)=C[C@]23C(=O)[C@@H](C=C(CO)[C@@H](O)[C@]12O)[C@H]1[C@@H](C[C@H]3C)C1(C)C` [Compound 731, Ingenol 3-(N-methyl-N-(2-methoxy-phenyl)-carbamate)], the figures for the concentration for a half-maximal effect (EC50) in experiment [1] and in experiment [3] were 20 to 100 nM and 150000 to 350000 nM, respectively.
As for `CC1=C[C@]23C(=O)[C@@H](C=C(CO)[C@@H](O)[C@]2(O)[C@H]1OC(=O)N1CC(=O)Nc2ccccc21)[C@H]1[C@@H](C[C@H]3C)C1(C)C` [Compound 733, Ingenol 3-(3-oxo-2,4-dihydroquinoxaline-1-carboxylate)], the EC50 is above 100 nM in experiment [1] and 150000 to 350000 nM in experiment [3].
As to `CC1=C[C@]23C(=O)[C@@H](C=C(CO)[C@@H](O)[C@]2(O)[C@H]1OC(=O)N1CCCC1C(F)(F)F)[C@H]1[C@@H](C[C@H]3C)C1(C)C` (some centres unmarked) [Compound 735, Ingenol 3-(2-trifluoromethyl-pyrrolidine-1-carboxylate)], the 50% effective concentration (EC50) in experiment [1] was below 20 nM; in experiment [3], 150000 to 350000 nM.
Regarding `CC1=C[C@]23C(=O)[C@@H](C=C(CO)[C@@H](O)[C@]2(O)[C@H]1OC(=O)N(C)C1CCN(C(=O)OC(C)(C)C)CC1)[C@H]1[C@@H](C[C@H]3C)C1(C)C` [Compound 742, Ingenol 3-(N-methyl-N—(N-(tert-butyloxycarbonyl)-4-piperidyl)-carbamate)], the values for the EC50 in experiment [1] and in experiment [3] were 20 to 100 nM and 150000 to 350000 nM, respectively.
In the same order, the values of `CC1=C[C@]23C(=O)[C@@H](C=C(CO)[C@@H](O)[C@]2(O)[C@H]1OC(=O)N(C)C1CCC1)[C@H]1[C@@H](C[C@H]3C)C1(C)C` [Compound 749, Ingenol 3-(N-cyclobutyl-N-methyl-carbamate)] are below 20 nM and above 350000 nM.
For `C=CCN(C)C(=O)O[C@H]1C(C)=C[C@]23C(=O)[C@@H](C=C(CO)[C@@H](O)[C@]12O)[C@H]1[C@@H](C[C@H]3C)C1(C)C` [Compound 750, Ingenol 3-(N-allyl-N-methyl-carbamate)], the half-maximal effective concentration (EC50) in experiment [1] was below 20 nM; in experiment [3], above 350000 nM.
In the same order, the values of `C#CCN(C)C(=O)O[C@H]1C(C)=C[C@]23C(=O)[C@@H](C=C(CO)[C@@H](O)[C@]12O)[C@H]1[C@@H](C[C@H]3C)C1(C)C` [Compound 751, Ingenol 3-(N-methyl-N-prop-2-ynyl-carbamate)] are 20 to 100 nM and above 350000 nM.

(Values after US9708286B2, “Ingenol-3-acylates III and ingenol-3-carbamates” (LEO Laboratories Limited, priority 2010, dated 2017).)
